Experimental data: the NIST ThermoML archive (doi:10.1021/je700287u)

Assay: xn = mol fraction of the nth substance listed
Details: Liquid

CN(CCO)CCO [N-methyldiethanolamine] + O
Details	mass density [kg/m3]
333.04 K, 10996 kPa, x1 = 0.0369	1000
333.04 K, 11991 kPa, x1 = 0.0369	1000.4
333.04 K, 12996 kPa, x1 = 0.0369	1000.8
333.04 K, 13988 kPa, x1 = 0.0369	1001.2
333.04 K, 14991 kPa, x1 = 0.0369	1001.6
333.04 K, 15994 kPa, x1 = 0.0369	1002
333.04 K, 16992 kPa, x1 = 0.0369	1002.4
333.04 K, 17985 kPa, x1 = 0.0369	1002.8
333.04 K, 18990 kPa, x1 = 0.0369	1003.2
333.04 K, 19977 kPa, x1 = 0.0369	1003.6
333.05 K, 1013 kPa, x1 = 0.0893	1013
333.05 K, 2006 kPa, x1 = 0.0893	1013.4
333.05 K, 2994 kPa, x1 = 0.0893	1013.8
333.05 K, 4031 kPa, x1 = 0.0893	1014.2
333.05 K, 4999 kPa, x1 = 0.0893	1014.6
333.05 K, 6000 kPa, x1 = 0.0893	1015
333.05 K, 6995 kPa, x1 = 0.0893	1015.4
333.05 K, 8005 kPa, x1 = 0.0893	1015.8
333.05 K, 9000 kPa, x1 = 0.0893	1016.2
333.05 K, 9992 kPa, x1 = 0.0893	1016.5
333.05 K, 10993 kPa, x1 = 0.0893	1017
333.05 K, 11998 kPa, x1 = 0.0893	1017.3
333.05 K, 13000 kPa, x1 = 0.0893	1017.7
333.05 K, 14008 kPa, x1 = 0.0893	1018.1
333.05 K, 14983 kPa, x1 = 0.0893	1018.5
333.05 K, 16002 kPa, x1 = 0.0893	1018.9
333.05 K, 17032 kPa, x1 = 0.0893	1019.3
333.05 K, 17945 kPa, x1 = 0.0893	1019.6
333.05 K, 18989 kPa, x1 = 0.0893	1020
333.05 K, 19994 kPa, x1 = 0.0893	1020.4
342.91 K, 1008 kPa, x1 = 0.1302	1011.7
342.91 K, 1996 kPa, x1 = 0.1302	1012.1
342.91 K, 3044 kPa, x1 = 0.1302	1012.5
342.91 K, 4015 kPa, x1 = 0.1302	1012.9
342.91 K, 5006 kPa, x1 = 0.1302	1013.4
342.91 K, 5995 kPa, x1 = 0.1302	1013.8
342.91 K, 7010 kPa, x1 = 0.1302	1014.2
342.91 K, 8001 kPa, x1 = 0.1302	1014.6
342.91 K, 8996 kPa, x1 = 0.1302	1015
342.91 K, 9995 kPa, x1 = 0.1302	1015.5
342.91 K, 10992 kPa, x1 = 0.1302	1015.9
342.91 K, 12029 kPa, x1 = 0.1302	1016.3
342.91 K, 12993 kPa, x1 = 0.1302	1016.7
342.91 K, 13996 kPa, x1 = 0.1302	1017.1
342.91 K, 14997 kPa, x1 = 0.1302	1017.5
342.91 K, 15998 kPa, x1 = 0.1302	1017.9
342.91 K, 16997 kPa, x1 = 0.1302	1018.3
342.91 K, 18033 kPa, x1 = 0.1302	1018.8
342.91 K, 18977 kPa, x1 = 0.1302	1019.2
342.91 K, 19980 kPa, x1 = 0.1302	1019.6
342.94 K, 1029 kPa, x1 = 0.0893	1005.9
342.94 K, 1996 kPa, x1 = 0.0893	1006.3
342.94 K, 3018 kPa, x1 = 0.0893	1006.7
342.94 K, 3995 kPa, x1 = 0.0893	1007.1
342.94 K, 5000 kPa, x1 = 0.0893	1007.5
342.94 K, 5992 kPa, x1 = 0.0893	1007.9
342.94 K, 7008 kPa, x1 = 0.0893	1008.3
342.94 K, 7994 kPa, x1 = 0.0893	1008.8
342.94 K, 9001 kPa, x1 = 0.0893	1009.1
342.94 K, 9994 kPa, x1 = 0.0893	1009.6
342.94 K, 10983 kPa, x1 = 0.0893	1010
342.94 K, 12000 kPa, x1 = 0.0893	1010.4
342.94 K, 12996 kPa, x1 = 0.0893	1010.8
342.94 K, 14014 kPa, x1 = 0.0893	1011.2
342.94 K, 14994 kPa, x1 = 0.0893	1011.6
342.94 K, 15989 kPa, x1 = 0.0893	1012
342.94 K, 16991 kPa, x1 = 0.0893	1012.4
342.94 K, 17989 kPa, x1 = 0.0893	1012.8
342.94 K, 18984 kPa, x1 = 0.0893	1013.2
342.94 K, 19988 kPa, x1 = 0.0893	1013.6
342.96 K, 1042 kPa, x1 = 0.0607	999.5
342.96 K, 2006 kPa, x1 = 0.0607	999.8
342.96 K, 3028 kPa, x1 = 0.0607	1000.3
342.96 K, 4013 kPa, x1 = 0.0607	1000.7
342.96 K, 5003 kPa, x1 = 0.0607	1001.2
342.96 K, 5994 kPa, x1 = 0.0607	1001.6
342.96 K, 7004 kPa, x1 = 0.0607	1002
342.96 K, 8063 kPa, x1 = 0.0607	1002.5
342.96 K, 9140 kPa, x1 = 0.0607	1003
342.96 K, 10022 kPa, x1 = 0.0607	1003.4
342.96 K, 11032 kPa, x1 = 0.0607	1003.7
342.96 K, 11997 kPa, x1 = 0.0607	1004.1
342.96 K, 13009 kPa, x1 = 0.0607	1004.5
342.96 K, 14001 kPa, x1 = 0.0607	1004.9
342.96 K, 15005 kPa, x1 = 0.0607	1005.3
342.96 K, 16002 kPa, x1 = 0.0607	1005.7
342.96 K, 17011 kPa, x1 = 0.0607	1006.1
342.96 K, 17988 kPa, x1 = 0.0607	1006.5
342.96 K, 18992 kPa, x1 = 0.0607	1006.9
342.96 K, 20154 kPa, x1 = 0.0607	1007.3
352.84 K, 1009 kPa, x1 = 0.1302	1004
352.84 K, 2026 kPa, x1 = 0.1302	1004.3
352.84 K, 3005 kPa, x1 = 0.1302	1004.8
352.84 K, 4006 kPa, x1 = 0.1302	1005.3
352.84 K, 5004 kPa, x1 = 0.1302	1005.7
352.84 K, 5993 kPa, x1 = 0.1302	1006.1
352.84 K, 6991 kPa, x1 = 0.1302	1006.5
352.84 K, 7992 kPa, x1 = 0.1302	1006.9
352.84 K, 8994 kPa, x1 = 0.1302	1007.4
352.84 K, 9980 kPa, x1 = 0.1302	1007.8
352.84 K, 10971 kPa, x1 = 0.1302	1008.2
352.84 K, 11987 kPa, x1 = 0.1302	1008.7
352.84 K, 13040 kPa, x1 = 0.1302	1009.1
352.84 K, 13997 kPa, x1 = 0.1302	1009.5
352.84 K, 14981 kPa, x1 = 0.1302	1009.9
